Results: patent US20200291082A1, “PREVENTION AND TREATMENT OF GRAFT-VERSUS-HOST-DISEASE WITH DEFENSINS” (priority 2017, published 2020)
Entries after “also recorded” stand apart in the source; their conditions may differ. No end group written: not given here.

Key:
[1] = tested on: acute graft versus host disease following stem cell transplantation; assay: prophylactic oral HD5 or hBD-2 in murine model of acute graft versus host disease (Example 15); assay type: in vivo, BALB/c mice
Experimental: To determine and assess the efficacy of prophylactic treatment with oral HD5 in a murine model of acute graft versus host disease following stem cell transplantation.
Treatment regime: 22 female BALB/c mice were irradiated with 4.5 Gy (2×498 sec) at intervals of at least 4 hours on day 0. Bone marrow was harvested: hind limbs harvested from 2 female WT C57BL/6 mice aseptically. Skeletal muscle was removed and epiphysis cut away. Lumen of bone flushed with PBS and cells pelleted and taken up. Harvest of T-cells: spleens from 2 female WT C57BL/6 mice were meshed through a […] cell strainer into a PBS filled dish. Cells were taken up in PBS and transferred into a 50 mL falcon tube and spun down. Cells were taken up in 1 mL PBS and 20 μL of CD4 microbead+20 μL CD8 microbeads per spleen added for incubation for 20 min at 4 degrees C. Cells were washed with PBS and applied to MACS separation in order to positively select CD4+ and CD8+ cells. Positively selected T-cells were counted and taken up. Transplantation: directly after the second irradiation, all WT BALB/c recipient mice were injected with 5×1.000.000 BM cells (50 μL) i.v. into the retroorbital venous plexus under isoflurane anesthesia. 22 BALB/c mice were treated with 1.2 mg of HD5/kg BW/day; 1.2 mg of hBD-2/kg BW/day or 100 μL of PBS per day vial oral gavage from day 0-10.
Survival was monitored for 60 days.

[2] = tested on: acute graft versus host disease following stem cell transplantation; assay: prophylactic oral hBD-2 in murine model of acute graft versus host disease following stem cell transplantation (Example 13); assay type: in vivo, BALB/c mice; details: for IL-1β from myeloid cells: CD11c+ dendritic cells and CD11b+ Ly6FG− cells; for infiltration with CD45+ leucocytes (FACS analysis): lamina propria of colon (FIG. 50: colon and small intestine); for intestinal T cell and myeloid cell infiltration: lamina propria of the colon (FIG. 51: colon and small intestine)
Experimental: To determine and assess the efficacy of prophylactic treatment with oral hBD-2 in a murine model of acute graft versus host disease following stem cell transplantation.
Treatment regime: 12 female BALB/c mice were irradiated with 4.5 Gy (2×498 sec) at intervals of at least 4 hours on day 0. Bone marrow was harvested: hind limbs harvested from 2 female WT C57BL/6 mice aseptically. Skeletal muscle was removed and epiphysis cut away. Lumen of bone flushed with PBS and cells pelleted and taken up. Harvest of T-cells: spleens from 2 female WT C57BL/6 mice were meshed through a 100 μM cell strainer into a PBS filled dish. Cells were taken up in PBS and transferred into a 50 mL falcon tube and spun down. Cells were taken up in 1 mL PBS and 20 μL of CD4 microbead+20 μL CD8 microbeads per spleen added for incubation for 20 min at 4 degrees C. Cells were washed with PBS and applied to MACS separation in order to positively select CD4+ and CD8+ cells. Positively selected T-cells were counted and taken up. Transplantation: directly after the second irradiation, all WT BALB/c recipient mice were injected with 5×1.000.000 BM cells (50 μL) i.v. into the retroorbital venous plexus under isoflurane anesthesia. 15 BALB/c mice were treated with 1.2 mg of hBD2/kg BW/day in 100 μL PBS per day vial oral gavage from day 0-10.
15 BALB/c mice received vehicle 100 μL PBS per day via oral gavage from day 0-10.
The mice were weighed daily for the initial 7 days and survival was monitored for 100 days.

[3] = tested on: acute graft versus host disease following stem cell transplantation; assay: prophylactic oral hBD-2 versus cyclosporine in murine model of acute graft versus host disease (Example 14); assay type: in vivo, BALB/c mice
Experimental: To determine and assess the efficacy of prophylactic treatment with oral hBD-2 versus cyclosporine in a murine model of acute graft versus host disease following stem cell transplantation.
Treatment regime: 20 female BALB/c mice were irradiated with 4.5 Gy (2×498 sec) at intervals of at least 4 hours on day 0. Bone marrow was harvested: hind limbs harvested from 2 female WT C57BL/6 mice aseptically. Skeletal muscle was removed and epiphysis cut away. Lumen of bone flushed with PBS and cells pelleted and taken up. Harvest of T-cells: spleens from 2 female WT C57BL/6 mice were meshed through a […] cell strainer into a PBS filled dish. Cells were taken up in PBS and transferred into a 50 mL falcon tube and spun down. Cells were taken up in 1 mL PBS and 20 μL of CD4 microbead+20 μL CD8 microbeads per spleen added for incubation for 20 min at 4 degrees C. Cells were washed with PBS and applied to MACS separation in order to positively select CD4+ and CD8+ cells. Positively selected T-cells were counted and taken up. Transplantation: directly after the second irradiation, all WT BALB/c recipient mice were injected with 5×1.000.000 BM cells (50 μL) i.v. into the retroorbital venous plexus under isoflurane anesthesia. 20 BALB/c mice were treated with 1.2 mg of hBD2/kg BW/day (n=7); 50 mg cyclosporine/kg BW on days 0, 3, 6 and 9 (n=7) or 100 μL PBS per day vial oral gavage (n=6) from day 0-10.
The mice were weighed at regular intervals during the study and survival was monitored for 90 days.

[4] = tested on: CD4+CD25+ Tcell transfer induced colitis; assay: therapeutic murine 14 weeks CD4+CD25+ Tcell transfer induced colitis model (Example 6); assay type: in vivo, SCID mice; details: hBD2 1 mg/kg s.c. OD, Dexamethasone 0.3 mg/kg i.p. OD, Enbrel 100 μg/mouse s.c. twice weekly
Source text: Efficacy of s.c. administration of hBD2 versus s.c. anti TNF-α (Enbrel) and intraperitoneal dexamethasone in a therapeutic, murine, 14 weeks, CD4+CD25+ Tcell transfer induced colitis model.
70 female BALB/c mice housed in groups of five per cage were allocated to 7 different treatment groups. Colitis was induced in SCID mice by transplantation of CD4+CD25+ Tcells from BALB/c mice. Lymphocytes isolated from spleen and lymph nodes from BALB/c mice were subjected to negative selection of CD4+ Tcells. Afterwards, CD4+CD25+ cells were positively isolated by binding to the beads from the CD4+ Tcell suspensions and the CD4+CD25− were collected from the supernatant. The animals were treated with hBD2, 0.1 mg/kg s.c. OD; 1 mg/kg s.c. OD or 3 mg/kg s.c. OD or with mouse anti TNFα 100 μg/mouse s.c. twice weekly or with dexamethasone 0.3 mg/kg intraperitoneally OD or PBS s.c. as vehicle from day 7 and 86 consecutive days.
Clinical assessment was based on body weight loss, stool consistency and presence of blood per rectum. The animals were sacrificed on day 95 and colon removed for assessment of weight and myeloperoxidase activity.

[5] = oral hBD2 1.2 mg/kg/day day 0-10, 15 mice
[6] = oral hBD-2 for 10 days versus PBS

## human beta defensin 2 (GIGDPVTCLKSGAICHPVFCPRRYKQIGTCGLPGTKCCKKP; not fully specified (bridges); ends and bridges not checked; listed as Homo sapiens) [hBD2]
[1]; FIG. 58, oral treatment for 10 days from day of stem cell transplantation
  mortality: significant reduction of mortality
[1]; oral 1.2 mg/kg/day day 0-10, six out of eight PBS mice died
  treated animals that had died by day 60: none
[2]; FACS analysis of the spleen
  Th1 cytokine production (TNF-α and IFN-γ in CD4 and CD8 T cells): reduced Th 1 cytokine production; also recorded: reduced Th1 cytokine production
  neutrophils: Reduced proportion of neutrophils; also recorded: reduced number of neutrophils
  IL-1β from myeloid cells: decrease the production of IL-1β
[2]; FACS analysis of the spleen, listed as hBD-2
  IL-1β from myeloid cells: reduction of IL-1β from myeloid cells; also recorded: Reduced IL-1β production
[2]; first 7 days following bone marrow transplantation
  weight loss: lost statistically significantly less weight
[2]; hBD2 1.2 mg/kg/day day 0 to day 10 versus vehicle, n=15
  survival (Kaplan-Meyer plot): dramatically increased survival
[2]; hBD-2 treated group versus PBS
  microarray analysis of colon samples: decreased inflammation, leucocyte and myeloid cell migration and tissue remodelling
[2]
  infiltration with CD45+ leucocytes (FACS analysis): reduced the infiltration
  intestinal T cell and myeloid cell infiltration: reduced
[2]; listed as hBD-2
  infiltration with CD45+ leucocytes (FACS analysis): Reduced CD45+ leucocyte cell migration
  intestinal T cell and myeloid cell infiltration: Reduction of intestinal T cell and myeloid cell infiltration
[2]; [5]
  mice still alive by day 100: 8 mice
  share of treated mice that had died by day 35: less than 30%
[2]; oral hBD2 1.2 mg/kg/day day 0-10, 15 mice, all 15 vehicle mice had died by day 35
  treated mice that had died by day 35: 4
[2]; [6]
  histology score of the colon: highly statistically lower; also recorded: statistically significant reduction of histology score
  histology score of the liver: highly statistically lower; also recorded: statistically significant reduction of histology score
  histology score of the small intestine: highly statistically lower; also recorded: statistically significant reduction of histology score
[2]; serum (FIG. 52a)
  TNF-α concentration: reduction
[2]; serum (FIG. 52b)
  IL-6 concentration: reduction
[2]; serum (FIG. 52c)
  IL-10 concentration: increased concentration of IL-10
[3]; FIG. 56, 7 mice treated with oral hBD-2 for 10 days
  mortality: statistically significant reduction of mortality
[3]; compared with PBS treated mice
  weight loss following bone marrow transplantation: lost statistically significantly less weight
[3]; oral hBD-2 1.2 mg/kg/day day 0-10 (n=7), cyclosporine 50 mg/kg on days 0, 3, 6 and 9 (n=7), all but one of PBS mice (n=6) died
  treated animals that had died by day 90: 1
[4]; colon, day 95
  myeloperoxidase activity: statistically significant and similar effect; also recorded: on par with 100 μg/mouse anti TNF-α s.c. twice weekly (Enbrel) and 0.3 mg/kg dexamethasone intraperitoneally OD
[4]
  clinical score (body weight loss, stool consistency, presence of blood per rectum): statistically significant and similar effect on clinical score; also recorded: on par with 100 μg/mouse anti TNF-α s.c. twice weekly (Enbrel) and 0.3 mg/kg dexamethasone intraperitoneally OD
[4]; day 95
  colon weight: statistically significant and similar effect on colon weight; also recorded: on par with 100 μg/mouse anti TNF-α s.c. twice weekly (Enbrel) and 0.3 mg/kg dexamethasone intraperitoneally OD
